The record followed here is patent US20130030012A1, “COMPOUNDS” (Glaxo Group Limited, priority 2011, published 2013).

Structures are written as SMILES.

The test system of assay [1] is experimental autoimmune encephalomyelitis (EAE) rats. The assay can be described thus: Rat experimental autoimmune encephalomyelitis (EAE) model, preventive treatment. It counts as in vivo. The procedure: A further study was carried out to study the impact of Lp-PLA2 inhibitors on modulating M1/M2 imbalance. In this study, rats were induced to develop experimental autoimmune encephalomyelitis (EAE) by immunization with myelin basic protein (MBP) antigen and treated with a known Lp-PLA2 inhibitor: 5-((9-Methoxy-4-oxo-6,7-dihydro-4H-pyrimido[6,1-a]isoquinolin-2-yl)oxy)-2-(3-(trifluoromethyl)phenoxy)benzonitrile (See PCT application no. PCT/CN2011/001597). In this preventive treatment model, the compound was administered at day 0 (day of immunization) and continued to administer until day 22. The study lasted for 25 days. Rats were subsequently monitored for symptoms of EAE. Rats were immunized with MBP to develop EAE and symptoms were monitored daily. Plasma Lp-PLA2 activity, OxLDL, and LysoPC concentration were determined at different time points through the course of EAE.

Assay [2] relates to proinflammatory (M1) and anti-inflammatory (M2) markers in splenic and CNS infiltrating macrophages. The assay can be described thus: Ex vivo analysis of M1 and M2 markers in macrophages of EAE rats by realtime PCR. Further details: species or system rat. The conditions noted are these: spleen harvested day 13 post MBP-immunization. The procedure:
Ex vivo analysis of proinflammatory (M1) and anti-inflammatory (M2) markers in control and compound treated EAE rats. Splenic macrophages were harvested at day 13 post MBP-immunization and assayed for expression of a variety of markers by realtime PCR. CNS infiltrating cells were harvested and macrophages were analyzed for expression of M1 and M2 markers by realtime PCR.

Regarding `COc1ccc2c(c1)CCn1c-2cc(Oc2ccc(Oc3cccc(C(F)(F)F)c3)c(C#N)c2)nc1=O` [5-((9-Methoxy-4-oxo-6,7-dihydro-4H-pyrimido[6,1-a]isoquinolin-2-yl)oxy)-2-(3-(trifluoromethyl)phenoxy)benzonitrile], in assay [1] (rat EAE plasma), the LysoPC levels entry was “decreased” and the “plasma Lp-PLA2 activity” value is reported as “decreased Lp-PLA2 activity”. Besides, the clinical disease result in assay [1] (rat EAE, MBP immunization, compound administered day 0 to day 22) is reported as “reduction in clinical disease”. In assay [2], the M1 markers expression result was “decrease in M1 markers” and the M2 markers expression result is “increase in M2 markers”.
